Consider one molecule from patent publication US20250334536A1, “MODIFIED OXID[…] ITS APPLICATION” (National Yang Ming Chiao Tung University, priority 2024, published 2025).

Assay [1] concerns nanoparticle composition (enzyme nanoparticles of modified glucose oxidase of the first type crosslinked with glutaraldehyde). As for the experimental part:
Deionized water solutions with varying pH values are then prepared, into which horseradish peroxidase (HRP, 0.4 μg/mL) and ABTS (2.5 mM) are added, followed by addition of the nanoparticle composition (0.1 μg/mL). 1 mL of the resulting mixture is placed in a UV-Vis spectrophotometer (model V670, JASCO), and the detection wavelength is set to 740 nm, corresponding to the characteristic absorption wavelength of ABTS^+·. Subsequently, glucose is added, and the time-dependent absorbance is measured. Using the standard calibration curve of ABTS^+· and the slope of the reaction rate, the time-dependent concentration of ABTS^+· is calculated. Enzyme kinetic parameters are then determined based on the Michaelis-Menten model, with further analysis performed using the Lineweaver-Burk model to evaluate the steady-state enzymatic behavior of the nanoparticle composition under different pH conditions.

Assay [2] has the same test system. The source holds these as a separate data set.
Procedure: Ethanol is then gradually added (5 μl each time) until the solution becomes turbid. Glutaraldehyde is added, and the mixture is stirred at room temperature for 1.5 hours. After the reaction, the formed nanoparticles are collected by centrifugation (12,000 g, 15 minutes). The collected precipitate is resuspended in a mixture of ethanol and deionized water, followed by centrifugation under the same conditions. Subsequently, the nanoparticles are washed twice by centrifugation under the same conditions using ultrapure water. Finally, the precipitate is resuspended in deionized water and stored at 4° C. until use.
Subsequently, the catalytic efficiency of the nanoparticle composition is investigated using the 2,2′-azino-bis(3-ethylbenzothiazoline-6-sulfonic acid) (ABTS) assay. […] The generated H2O2 then reacts with HRP to oxidize the colorless ABTS into the green ABTS radical cation (ABTS^+·), enabling colorimetric analysis of enzyme activity.
For assay [3] the test system is unchanged. The following applies: 35° C.
Procedure: Subsequently, an enzyme reaction solution containing the nanoparticle composition (concentration: 0.1 μg/mL), HRP (concentration: 0.4 μg/mL), and ABTS (concentration: 2.5 mM) is prepared. A volume of 400 μL of the reaction solution is transferred to a J-815 circular dichroism spectrometer for subsequent measurements, and a circulating constant-temperature water bath is activated to regulate the temperature to the desired setting. […] The change in absorbance over time is then recorded. Using the standard calibration curve of ABTS^+· and the rate of absorbance change, the corresponding concentration change of ABTS^+· is calculated. Based on the Michaelis-Menten kinetic model, various enzyme kinetic parameters are derived to evaluate the catalytic efficiency and stability of the nanoparticle composition under different temperature conditions.
For assay [4], the system named is glucose oxidase nanoparticles. The following applies: comparison value; cited from earlier work.
Setting [5] is: nanoparticle composition, substrate glucose.

The structures appear in SMILES notation. Read-outs that look alike come from different tables or passages of the source.

The term Km denotes the concentration of substrate that gives half-maximal velocity. In the case of `OC[C@H]1OC(O)[C@H](O)[C@@H](O)[C@@H]1O` (some centres unmarked) [glucose], the Kcat/KM in assay [1] (pH 5) was 5000 M⁻¹ s⁻¹; in assay [1] (pH 7), “approximately 4.8×10^4 s^−1·M^−1”; in assay [1] (pH 9), 10000 M⁻¹ s⁻¹; in assay [2] (setting [5]), 45200 M⁻¹ s⁻¹; in assay [3], “approximately 6.0×10^4 s^−1·M^−1”. In assay [2] (nanoparticle composition vs glucose oxidase nanoparticles (676 M^−1·s^−1)), the “catalytic efficiency (Kcat/KM), times higher than that of glucose oxidase nanoparticles” value is listed as “approximately 66 times”. The “increase of catalytic efficiency (Kcat/KM) compared to modified glucose oxidase” value in assay [2] (nanoparticle composition vs modified glucose oxidase) was “more than 300%”. Also, the Kcat in assay [2] (setting [5]) is 421.87 s⁻¹. Moreover, the Km in assay [2] (setting [5]) came to 9.33 mM. For the same molecule, the VMax in assay [2] (setting [5]) amounted to 0.2646 μM^s − 1. Also, in assay [4], the “catalytic efficiency (Kcat/KM)” value is 676 M⁻¹ s⁻¹.
